Experimental data published in the supplement of paper PMC10307832.

Assays:
Experiment in all cases: relative viability (nuclei count vs DMSO), 5 days (fraction); higher = more cells survive
Bortezomib + Trametinib = compound: CC(C)C[C@H](NC(=O)[C@H](Cc1ccccc1)NC(=O)c1cnccn1)B(O)O [Bortezomib] + CC(=O)Nc1cccc(-n2c(=O)n(C3CC3)c(=O)c3c(Nc4ccc(I)cc4F)n(C)c(=O)c(C)c32)c1 [Trametinib] (partner 0.02 µM)
Method in brief: (§1)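 Relative viability equals treated-well nuclei counts divided by vehicle-well nuclei counts. Counts came from 4× images of lung cancer cell lines grown in 1536-well plates for 5 days after pin-tool dosing on the day after seeding. Dosing used one drug alone or a fixed anchor-drug dose plus five library-drug doses (not always all listed) in √10 steps, and values are medians of duplicate plates.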

Bortezomib + Navitoclax = compound: CC(C)C[C@H](NC(=O)[C@H](Cc1ccccc1)NC(=O)c1cnccn1)B(O)O [Bortezomib] + CC1(C)CCC(c2ccc(Cl)cc2)=C(CN2CCN(c3ccc(C(=O)NS(=O)(=O)c4ccc(N[C@H](CCN5CCOCC5)CSc5ccccc5)c(S(=O)(=O)C(F)(F)F)c4)cc3)CC2)C1 [Navitoclax] (partner 0.5 µM)
Method in brief: as §1

[1] = compound: CC1=CC(=NN1)NC2=CC(=NC(=N2)/C=C/C3=CC=CC=C3)N4CCN(CC4)C + C[C@@H](Oc1cc(-c2cnn(C3CCNCC3)c2)cnc1N)c1c(Cl)ccc(F)c1Cl [Crizotinib] (partner 1 µM)
Method in brief: as §1

Bortezomib + Linsitinib = compound: CC(C)C[C@H](NC(=O)[C@H](Cc1ccccc1)NC(=O)c1cnccn1)B(O)O [Bortezomib] + C[C@]1(O)C[C@@H](c2nc(-c3ccc4ccc(-c5ccccc5)nc4c3)c3c(N)nccn32)C1 [Linsitinib] (partner 1 µM)
Method in brief: as §1

Cell Line	relative viability (Bortezomib + Trametinib; first compound 0.0002 µM)	relative viability (Bortezomib + Trametinib; first compound 0.000632 µM)	relative viability (Bortezomib + Trametinib; first compound 0.002 µM)	relative viability (Bortezomib + Trametinib; first compound 0.006325 µM)	relative viability (Bortezomib + Trametinib; first compound 0.02 µM)	relative viability (Bortezomib + Navitoclax; first compound 0.0002 µM)	relative viability (Bortezomib + Navitoclax; first compound 0.000632 µM)	relative viability (Bortezomib + Navitoclax; first compound 0.002 µM)	relative viability (Bortezomib + Navitoclax; first compound 0.006325 µM)	relative viability (Bortezomib + Navitoclax; first compound 0.02 µM)	relative viability ([1]; first compound 0.08 µM)	relative viability ([1]; first compound 0.253 µM)	relative viability ([1]; first compound 0.8 µM)	relative viability ([1]; first compound 2.53 µM)	relative viability ([1]; first compound 8 µM)	relative viability (Bortezomib + Linsitinib; first compound 0.0002 µM)	relative viability (Bortezomib + Linsitinib; first compound 0.000632 µM)	relative viability (Bortezomib + Linsitinib; first compound 0.002 µM)	relative viability (Bortezomib + Linsitinib; first compound 0.006325 µM)	relative viability (Bortezomib + Linsitinib; first compound 0.02 µM)
NCI-H2087	0.201	0.187	0.149	0.0967	0.0704	0.991	1.02	0.509	0.0888	0.0686	0.968	0.58	0.769	0.567	0.179	0.944	1.15	0.764	0.11	0.215
HOP-62	0.37	0.401	0.378	0.173	0.0647	1.17	1.05	0.747	0.243	0.074	0.985	0.963	0.979	0.706	0.229	1.04	1.02	0.352	0.465	0.052
EKVX	0.345	0.38	0.208	0.174	0.0845	0.95	1.03	0.978	0.44	0.0945	0.991	1.12	0.978	0.552	0.147	1.01	0.936	0.915	0.609	0.0808
EMC-BAC-2	1.02	1.01	0.803	0.341	0.307	1.13	1.2	1.28	0.595	0.171	0.788	0.721	0.566	0.296	0.0972	0.828	0.805	0.786	0.46	0.132
HARA	0.642	0.592	0.896	0.0979	0.189	1.14	1.16	1.12	0.075	0.108	1.05	1.01	0.932	0.138	0.1	0.899	0.836	0.895	0.0675	0.0867
LU99A	0.546	0.522	0.567	0.517	0.148	0.824	–	0.945	0.384	0.132	0.554	0.549	0.452	0.16	0.13	0.55	–	0.599	0.337	0.149
